Where two headings read alike, the source gives them in different places. Ends that are not written are not given here.
Assays:
[1] = test system: COS-7 cells; test: Optimal LXXLL motif: ligand sensitivity of COS-7 cells carrying pSimer-G plasmids; assay type: cell-based, African Green Monkey; conditions: E2 or OHT for 20 minutes, compared among six pSimer-G plasmids
Description: As shown in the above (Table 1), six kinds of LXXLL motifs as those can be applied to each of […] backbones were prepared, and introduced into […]. Ligand sensitivity of COS-7 cells carrying either one of the six kinds of plasmids was measured (FIG. 8). […] Next, spectrum from the cells carrying […]6 with all wavelengths was measured, provided ligand was present and absent (FIG. 9).

[2] = target: T1, ER LBD (Homo sapiens, UniProt P03372)
T1 sequence (P03372 305-550): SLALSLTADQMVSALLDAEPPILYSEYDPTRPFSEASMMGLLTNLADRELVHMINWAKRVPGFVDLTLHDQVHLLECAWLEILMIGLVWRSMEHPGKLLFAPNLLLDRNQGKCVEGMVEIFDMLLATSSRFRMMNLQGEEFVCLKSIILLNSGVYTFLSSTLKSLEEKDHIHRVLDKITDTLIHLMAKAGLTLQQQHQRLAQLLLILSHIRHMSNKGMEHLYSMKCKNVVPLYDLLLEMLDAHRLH

[3] = target: T2, ER LBD (Homo sapiens, UniProt P03372); test: Estrogenicity score in COS-7 cells cotransfected with pSimer-R2 and pSimer-G4; assay type: cell-based; design: cDNAs of ER LBD (305-550 AA) and phosphorylation-recognition domain of Src (SH2) were amplified by PCR; expressed in transfected cells; host or cells: COS-7
T2 sequence (P03372 305-550) 1: T1 sequence (P03372 305-550)
T2 sequence (P03372 305-550) 2: T1 sequence (P03372 305-550)
Description: A COS-7 cells carrying both pSimer-R2 and pSimer-G4 were simulated with ligands for 20 minutes, and spectrum of luminescence emitted as a result with all wavelengths was observed (FIG. 11). […] The term genomic signal used herein refers to an intracellular signal involved in conventional protein expression in the nucleus. On the other hand, the term non-genomic signal means an intracellular signal not accompanying conventional protein expression. Typically, this is the general classification of intracellular signal transductions.
Further, from ratio of luminescence intensities between red signal (610 nm) and green signal (540 nm) induced by a ligand, it is possible to show numerically whether the measured ligand tends to genomic activity (also referred to as agonistic activity herein) or nongenomic activity (also referred to as antagonistic activity herein).

[4] = target: T2, ER LBD; test: Estrogenicity score in COS-7 cells co-expressing pSimer-R2 and pSimer-G6
[5] = target: T1, ER LBD; remark: listed apart in the source
[6] = target: T1, ER LBD; test: Ligand sensitivity of various cell lines carrying pSimer-R2 (red luminescence); conditions: pSimer-R2 in HeLa, COS-7, NIH 3T3 and MCF-7 cells; 20 minutes stimulation; each cell line
[7] = target: T1, ER LBD; remark: listed apart in the source
[8] = [variation of luminescence intensity at 540 nm]/[variation at 610 nm], COS-7 cells, pSimer-R2 + pSimer-G4, 20 minutes stimulation
[9] = [variation of luminescence intensity at 540 nm]/[variation at 610 nm], COS-7 cells, pSimer-R2 + pSimer-G6, 20 minutes stimulation

| Compound | increase in luminescence intensity [6] | Estrogenicity score [3, 8] | Estrogenicity score [4, 9] | also measured |
| --- | --- | --- | --- | --- |
| pSimer-G6: green luminescent probe, Rip140 motif 946 VCNESLLLQKLVNFS 932 (also: within green luminescent probe) | – | – | – | luminescence intensity ratio relative to control (S/N ratio) [1]: strongest luminescence intensity ratio relative to control |
| 4-hydroxytamoxifen [OHT] | remarkable luminescence intensity | – | – | concentration at which luminescence intensity peaked [2]: about 10^−5 M; Estrogenicity score [3]: 0.62; Estrogenicity score [4]: 0.38; concentration at which luminescence intensity peaked [5]: about 10^−5 M; time of peak luminescence intensity after stimulation [7]: 15 min |
| C[C@]12CC[C@@H]3c4ccc(O)cc4C[C@@H](CCCCCCCCC[S+]([O-])CCCC(F)(F)C(F)(F)F)[C@H]3[C@@H]1CC[C@@H]2O (stereo partly shown) [ICI, ICI182780] | remarkable luminescence intensity | 0.86 | 1.08 | – |
| C[C@]12CC[C@H]3[C@@H](CCC4=CC(=O)CC[C@@]43C)[C@@H]1CC[C@@H]2O [T, testosterone] | – | 1.07 | 1.07 | – |
| CC(=O)[C@H]1CC[C@H]2[C@@H]3CCC4=CC(=O)CC[C@]4(C)[C@H]3CC[C@]12C [progesterone] | – | – | 1.06 | – |

Source: patent US20090123954A1, “MULTICOLOR BIOLUMINESCENT VISUALIZATION PROBE SET, OR SINGLE-MOLECULE-FORMAT MULTICOLOR BIOLUMINESCENT VISUALIZATION PROBE” (National Institute of Advanced Industrial Science and …, priority 2007, published 2009)
